{"source": "patent EP4417616A1", "about": "“LXR ANTAGONISTS” (Ospedale San Raffaele S.r.l., priority 2023, dated 2024)", "key": {"LXRα": {"biological_target": "T1, LXRα (Homo sapiens, UniProt Q13133)", "T1 construct": "expressed in transfected cells; host or cells: HEK293", "T1 sequence (Q13133 1-447)": "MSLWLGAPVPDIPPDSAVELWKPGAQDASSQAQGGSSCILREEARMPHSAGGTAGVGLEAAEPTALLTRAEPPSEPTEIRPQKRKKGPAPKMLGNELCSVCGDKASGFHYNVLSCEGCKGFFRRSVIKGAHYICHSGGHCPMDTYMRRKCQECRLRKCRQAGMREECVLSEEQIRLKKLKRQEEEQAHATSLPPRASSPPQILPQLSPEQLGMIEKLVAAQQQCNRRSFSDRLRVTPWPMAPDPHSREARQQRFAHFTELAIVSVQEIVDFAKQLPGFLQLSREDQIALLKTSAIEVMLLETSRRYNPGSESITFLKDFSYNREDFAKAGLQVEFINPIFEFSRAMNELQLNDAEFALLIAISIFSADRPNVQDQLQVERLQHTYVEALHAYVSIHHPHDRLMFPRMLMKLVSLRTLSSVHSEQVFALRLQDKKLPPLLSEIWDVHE", "assay": "Luciferase-based reporter assay for LXRα transcriptional activity (HEK293, Gal4-LXRα)", "type": "cell-based", "settings": "for antagonism of LXRα activation induced by 22R-HC: 22R-HC 5 or 10 µM, titrating amounts of compound (1-50 µM)", "procedure": "Reporter assay for nuclear receptor transcriptional activity. Human embryonic Kidney 293 cells (American Type Culture Collection) were cultured in Dulbecco's Modified Eagle's medium containing 10% of fetal bovine serum at 37°C in humidified atmosphere of 5% CO2. HEK293 cells (4×10^4 cells per well) were transiently transfected in 48 well plate with the reporter plasmids pMH100X4-TK-luc (100 ng/300µl), Renilla (22 ng/300µl) together with 100 ng/300µl of pCMX-Gal4-LXRα or pCMX-Gal4-LXRβ plasmids using X-tremeGENE 9 DNA Transfection Reagent (Roche). Six hours after transfection, the cells were treated with the appropriate compound for 24 hours. Luciferase activities were analyzed by luciferase Dual Reporter Assay Systems (Promega) according to the manufacturer's protocol. GAL4-LXRs, and TK-MHC100-luc plasmids were described in^7. […] Six hours after transfection, the cells were treated with the appropriate compound for 40 hours. Luciferase activity was analyzed as described above and protein content spectrophotometrically using Coomassie Plus Protein assay reagent (Thermo Scientific). Quantitative Real-Time-PCR. U937 cell line was differentiated in foam macrophages with phorbol 12-myristate 13-acetate (PMA) 10 ng/ml (Sigma) for 72 hours at 37°C in RPMI 10% FBS. At day 3 T0901317 (10 µM) or different amount of PFM037 (50, 25 and 10 µM) were added for 16 hours. Total RNA was purified by TRIZOL (Invitrogen). Reverse transcription was performed by MLV-reverse transcriptase (Promega). QPCR was performed using SYBR Green Master Mix (Applied Biosystems) and real-time PCR (Viia 7 Real Time PCR System, Applied Biosystems). PCR reactions were done in triplicate."}, "[1]": {"test_system": "Lewis Lung Carcinoma (LLC)", "assay": "Treatment of LLC tumor-bearing mice", "type": "in vivo", "source_text": "Tumor challenge experiments."}, "LLC tumor cells": {"test_system": "LLC tumor cells", "assay": "In vitro growth of LLC tumor cells", "type": "cell-based, mouse", "settings": "compared with vehicle"}, "RMA lymphoma": {"test_system": "RMA lymphoma", "assay": "Treatment of RMA tumor-bearing mice", "settings": "300 µg i.v. 5 days/week", "protocol": "Analysis of tumor infiltrating cells by flow cytometry. […] Tumors collected 7, 10, 12 or 14 days after injection were cut into small fragments and digested with Liberase TL (66 µg/ml, Roche) and DNAse I (150 µg/ml, Roche) for 25-30 minutes at 37 °C. Digested tissues were filtered by using a 75 µm diameter cell strainer. Single cell suspensions were stained with Live/Dead Violet kit reagents (Molecular Probes) for 30 minutes at 4°C. After washing, the cells were incubated for 5-10 minutes at RT with Fc-blocking solution (Anti-CD16/32, 10 µg/ml mouse Fc Block, BD) and then stained with various antibodies incubated at 4°C for 20 minutes. […] CD209a (5H10), CCR7 (4b12) and F4/80 (BM8) were from eBioscience. Rat IgG, Rat IgG2a, Rat IgG2b, Rat IgM and Hamster isotype control mAbs were used as controls (Biolegends and BD Biosciences). For intracellular staining, cells were incubated with PMA (100 ng/ml) and ionomycin (500 ng/ml) in the presence of 10 µg/ml of Brefeldin for 4 hours. Cells were then fixed using the IC Fixation buffer (eBioscience), permeabilized with 1x Permeabilization buffer (eBiosciences) and stained with anti-IFNy mAb. Samples were run by FACSCanto flow cytometer and analyzed by FlowJo software gating on live cells. FACS sorting was performed by using the FACSAria Fusion (BD)\nTumor challenge experiments. C57BL/6 mice were injected subcutaneously with LLC-Mock (1 ×10^6), LLC-SULT2B1b (1 ×10^6), RMA (2 ×10^5), or B16F1-OVA (2 ×10^5) tumor cells. […] Tumor size was evaluated by measuring perpendicular diameters by a caliper every 2-3 days. Data are reported as the average tumor volume ± SD. In selected experiments tumors were injected in Ccr2^-/-mice.\nTreatment of tumor-bearing mice with LXR antagonists alone or with immunotherapy. Tumor-bearing mice were treated with 25-HC-3S or PFM037 6-7 days after tumor challenge. After 6-7 days, mice were randomly assigned to either treatment or vehicle groups. Mice were injected with 300 µg of either compound given i.v. for 5 days/week. […] B16F1-OVA-bearing mice were treated with 400 µg of PFM037 for 5 days/week. For controls of mAb experiments, mice were injected with 250 µg of rat IgG2a isotype control antibody. […] Tumors were collected and measured 14 days after tumor challenge."}, "LXRα-LBD": {"biological_target": "T2, LXRα-LBD (Homo sapiens, UniProt Q13133)", "T2 construct": "expressed in transfected cells; host or cells: Huh7 (printed 'Hhu7') human liver cell line", "T2 sequence (Q13133 209-447 limits assumed)": "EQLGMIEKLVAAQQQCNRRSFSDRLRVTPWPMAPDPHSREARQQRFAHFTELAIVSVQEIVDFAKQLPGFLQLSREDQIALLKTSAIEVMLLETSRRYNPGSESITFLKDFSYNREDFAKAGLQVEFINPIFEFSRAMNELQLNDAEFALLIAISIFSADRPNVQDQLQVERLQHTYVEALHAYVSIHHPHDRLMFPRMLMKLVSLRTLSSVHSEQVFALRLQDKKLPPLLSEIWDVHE", "assay": "Mammalian two-hybrid assay, RAP250-Del4 with pVP16-LXRα-LBD", "type": "cell-based", "settings": "ligand alone, 10 µM; Huh7 cells"}, "LXRβ-LBD": {"biological_target": "T3, LXRβ-LBD (Homo sapiens, UniProt P55055)", "T3 construct": "expressed in transfected cells; host or cells: Huh7 (printed 'Hhu7') human liver cell line", "T3 sequence (P55055 222-460 limits assumed)": "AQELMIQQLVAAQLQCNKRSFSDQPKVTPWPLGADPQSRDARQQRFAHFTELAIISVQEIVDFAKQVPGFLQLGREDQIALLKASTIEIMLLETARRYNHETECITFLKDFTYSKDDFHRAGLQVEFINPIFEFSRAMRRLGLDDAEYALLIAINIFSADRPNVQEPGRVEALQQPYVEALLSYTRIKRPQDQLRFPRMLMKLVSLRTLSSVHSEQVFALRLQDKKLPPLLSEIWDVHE", "assay": "Mammalian two-hybrid assay, RAP250-Del4 with pVP16-LXRβ-LBD", "type": "cell-based", "settings": "ligand alone, 10 µM; Huh7 cells"}, "[2]": {"settings": "LLC-bearing mice, 300 µg i.v. 5 days/week from day 6-7, vs vehicle"}}, "note": "“Also recorded” adds a separate entry of the source."}
{"smiles": "C[C@H](CCCC(C)(C)O)[C@H]1CC[C@H]2[C@@H]3CC=C4C[C@@H](OS(=O)(=O)O)CC[C@]4(C)[C@H]3CC[C@]12C", "note": "[25-HC-3S, 25-Hydroxycholesterol-3-sulfate, reference compound]", "values": [{"measurement": "IC50", "setting": "LXRα", "result": 12.7, "unit": "µM"}, {"measurement": "antagonism of LXRα activation induced by 22R-HC", "setting": "LXRα", "result": "antagonized the LXRα activity in a dose-dependent manner"}, {"measurement": "absolute numbers of tumor-infiltrating mono-DCs", "setting": "[1]; [2]", "result": "Higher"}, {"measurement": "tumor growth", "setting": "[1]; [2]", "result": "delay of tumor growth"}, {"measurement": "in vitro growth of LLC tumor cells", "setting": "LLC tumor cells", "result": "grew in a similar manner"}, {"measurement": "numbers of tumor-infiltrating mono-DCs", "setting": "RMA lymphoma", "result": "Higher"}, {"measurement": "tumor growth", "setting": "RMA lymphoma; tumor weight at sacrifice", "result": "tumor growth control"}]}
{"smiles": "CC(C)CC[C@@H](O)[C@@H](C)[C@H]1CC[C@H]2[C@@H]3CC=C4C[C@@H](O)CC[C@]4(C)[C@H]3CC[C@]12C", "note": "[22R-HC]", "values": [{"measurement": "luciferase activity", "setting": "LXRα-LBD", "result": "induced luciferase activity"}, {"measurement": "luciferase activity", "setting": "LXRβ-LBD", "result": "induced luciferase activity"}]}
{"smiles": "CC(C)CC[C@H](O)[C@@H](C)[C@H]1CC[C@H]2[C@@H]3CC=C4C[C@@H](O)CC[C@]4(C)[C@H]3CC[C@]12C", "note": "[22S-HC, 22S-hydroxycholesterol]", "values": [{"measurement": "antagonism of LXRα activation induced by 22R-HC", "setting": "LXRα", "result": "does not antagonize; also recorded: did not antagonize"}]}
{"smiles": "C[C@@H]([C@H]1CC[C@H]2[C@@H]3CC=C4C[C@@H](O)CC[C@]4(C)[C@H]3CC[C@]12C)[C@@H](O)Cc1ccccc1", "note": "[PFM046, (22S)-23-Phenyl-24-norchol-5-en-3β,22-diol]", "values": [{"measurement": "tumor growth", "setting": "[1]; established LLC tumors, 300 µg/mouse every other day, Fig. 24B", "result": "able to control LLC tumor growth; also recorded: controls tumor growth"}]}
